Experimental data as given in the Deep4Chem optical property database.

Assay: photoluminescence quantum yield (fraction); solvent given as SMILES

Work on `CC(C)(C)c1ccc2c(c1)sc1[n+]2[B-](F)(F)n2c(c3cccc4cccc2c43)=N1` yielded a photoluminescence quantum yield (in C1CCOC1) of 0.85, a photoluminescence quantum yield (in CC#N) of 0.93 and a photoluminescence quantum yield (in CCCCCC) of 0.87. It also gave a photoluminescence quantum yield (in Cc1ccccc1) of 0.86 and a photoluminescence quantum yield (in ClCCl) of 0.86.
